Reference: ChEMBL document CHEMBL1137021, “The phenolic diterpene totarol inhibits multidrug efflux pump activity in Staphylococcus aureus” (Antimicrob Agents Chemother, 2007)
In brackets after ≈: the same amount, converted by molar mass. Activity calls are given as the source filed them. The rule behind the calls is not given here.

Experiments:
Staphylococcus aureus [1] = assay: Antimicrobial activity against NorA deficient Staphylococcus aureus K1758; format: functional
[2] = target: T1, Quinolone resistance protein NorA (Staphylococcus aureus) (UniProt P0A0J7); assay: Inhibition of NorA efflux pump in Staphylococcus aureus 1199B assessed as reduction in ethidium bromide MIC
T1 sequence (whole entry): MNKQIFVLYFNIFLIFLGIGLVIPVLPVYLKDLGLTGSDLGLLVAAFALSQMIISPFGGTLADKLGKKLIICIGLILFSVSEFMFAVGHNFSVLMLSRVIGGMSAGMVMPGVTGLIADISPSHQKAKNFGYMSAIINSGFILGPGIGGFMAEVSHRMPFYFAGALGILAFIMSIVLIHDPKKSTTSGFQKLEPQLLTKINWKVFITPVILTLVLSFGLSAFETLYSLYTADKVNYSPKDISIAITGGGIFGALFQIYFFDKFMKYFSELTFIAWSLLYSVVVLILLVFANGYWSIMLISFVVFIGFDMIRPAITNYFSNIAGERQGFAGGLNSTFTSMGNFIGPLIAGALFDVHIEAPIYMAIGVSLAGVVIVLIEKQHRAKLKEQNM

[3] = target: T1, Quinolone resistance protein NorA (Staphylococcus aureus); assay: Inhibition of NorA efflux pump in methicillin-resistant Staphylococcus aureus assessed as reduction in methicillin MIC
[4] = target: T1, Quinolone resistance protein NorA (Staphylococcus aureus); assay: Inhibition of NorA efflux pump in Staphylococcus aureus 1199B assessed as reduction in Norfloxacin MIC at 1 ug/ml
Staphylococcus aureus [5] = assay: Antimicrobial activity against Staphylococcus aureus XU212 expressing tetK pump; format: functional, organism-based
Staphylococcus aureus [6] = assay: Antimicrobial activity against Staphylococcus aureus K3092 overexpressing NorA gene; format: functional
Staphylococcus aureus [7] = assay: Antimicrobial activity against Staphylococcus aureus RN4220 expressing MsrA protein; format: functional, organism-based
[8] = target: T1, Quinolone resistance protein NorA (Staphylococcus aureus); assay: Inhibition of NorA efflux pump in Staphylococcus aureus isolate15 assessed as potentiation of oxacillin MIC
Staphylococcus aureus [9] = assay: Antimicrobial activity against Staphylococcus aureus ATCC 25923; format: functional
Plasmodium falciparum = assay: Antiplasmodial activity against chloroquine-resistant Plasmodium falciparum; format: functional, organism-based
[10] = target: T1, Quinolone resistance protein NorA (Staphylococcus aureus); assay: Inhibition of NorA efflux pump in Staphylococcus aureus K3092 assessed as reduction in ethidium bromide MIC
Staphylococcus aureus [11] = assay: Inhibition of tetK efflux pump in Staphylococcus aureus XU212 assessed as reduction in tetracycline MIC at 1 ug/ml
[12] = Ratio of inhibition of CHO cells to IC50 for chloroquine-resistant Plasmodium falciparum
Staphylococcus aureus [13] = assay: Antimicrobial activity against Staphylococcus aureus 1199B expressing NorA pump; format: functional, organism-based
[14] = target: T2, Quinolone resistance protein NorA (Staphylococcus aureus, UniProt P0A0J7); assay: Inhibition of NorA efflux pump in Staphylococcus aureus K3092 assessed as inhibition of EtBr efflux
T2 sequence (P0A0J7 whole entry): T1 sequence (whole entry)

Staphylococcus aureus [15] = assay: Inhibition of MsrA efflux pump in Staphylococcus aureus RN4220 assessed as reduction in erythromycin MIC at 1 ug/ml
Staphylococcus aureus [16] = assay: Antimicrobial activity against Staphylococcus aureus NCTC 8325-4 expressing NorA gene; format: functional
Staphylococcus aureus [17] = assay: Antimicrobial activity against totarol-resistant Staphylococcus aureus K3090; format: functional

With `CC(C)c1c(O)ccc2c1CC[C@H]1C(C)(C)CCC[C@]21C` [TOTAROL] the MIC (Staphylococcus aureus [1]) was 1.25 µg/mL (≈ 4.36 µM), the Activity [2] was “Active” and the fold change (FC) [3] was 8. The fold change (FC) [4] was 4, the Activity (Staphylococcus aureus [5]) was “Active” and the MIC (Staphylococcus aureus [6]) was 16 µg/mL (≈ 55.9 µM). The Activity (Staphylococcus aureus [7]) was “Active”, the fold change (FC) [8] was 50 and the MIC (Staphylococcus aureus [9]) was 2 µg/mL (≈ 6.98 µM). The IC50 (Plasmodium falciparum) was 4.29 µM, the Activity [10] was “Active” and the fold change (FC) (Staphylococcus aureus [11]) was 4. The Ratio [12] was 40, the Activity (Staphylococcus aureus [13]) was “Active” and the IC50 [14] was 15 µM. For the same compound, the fold change (FC) (Staphylococcus aureus [15]) was 8, the MIC (Staphylococcus aureus [16]) was 2.5 µg/mL (≈ 8.73 µM) and the MIC (Staphylococcus aureus [17]) was 16 µg/mL (≈ 55.9 µM).
In the case of `CC[n+]1c(-c2ccccc2)c2cc(N)ccc2c2ccc(N)cc21.[Br-]` [HOMIDIUM BROMIDE], the MIC (Staphylococcus aureus [1]) is reported as 0.63 µg/mL, the MIC (Staphylococcus aureus [6]) is reported as 100 µg/mL and the MIC (Staphylococcus aureus [16]) is reported as 6.25 µg/mL. For the same compound, the MIC (Staphylococcus aureus [17]) was 0.63 µg/mL.
`COC(=O)[C@H]1[C@H]2C[C@@H]3c4[nH]c5cc(OC)ccc5c4CCN3C[C@H]2C[C@@H](OC(=O)c2cc(OC)c(OC)c(OC)c2)[C@@H]1OC` [RESERPINE] gave an IC50 [14] of 8 µM.
